Source: PMC10714399, “Open Source Antibiotics: Simple Diarylimidazoles Are Potent against Methicillin-Resistant Staphylococcus aureus” (ACS Infectious Diseases, 2023)

Test: LogD7.4 (Chrom Log D)
Type: physicochemical
Details: chromatographic system (Chrom Log D); pH 7.4, NEU; read-out: LogD 7.4 (NEU)

chromatographic logD: 2.7
Compound: c1ccc(-c2nc3n(c2-c2ccc4occc4c2)CCC3)nc1 [compound 821]
